Test results published in patent publication US10336739B2, “4-hydroxy-3-(heteroaryl)pyridine-2-one APJ agonists” (BRISTOL-MYERS SQUIBB COMPANY, priority 2015, dated 2019).

What follows are molecules tested against human APJ receptor (Homo sapiens (Human), UniProt P35414) (assay: Intracellular cAMP accumulation assay (APJ hcAMP, HTRF)). Conditions: HEK293 cells stably expressing human APJ receptor; inhibition of forskolin-mediated cAMP production; read-out: hAPJ cAMP EC50 (nM) Potency range.
Format: cell-based
In short: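 cAMP inhibition was quantified by HTRF against a cAMP standard curve, with EC50 fitted to a variable-slope sigmoidal curve. Compounds acted on 5,000 APJ-stable HEK293 cells for 30 minutes at room temperature alongside 2 μM forskolin and […] IBMX. Detection reagents were incubated 60 min.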

Chain of human APJ receptor (P35414 whole entry): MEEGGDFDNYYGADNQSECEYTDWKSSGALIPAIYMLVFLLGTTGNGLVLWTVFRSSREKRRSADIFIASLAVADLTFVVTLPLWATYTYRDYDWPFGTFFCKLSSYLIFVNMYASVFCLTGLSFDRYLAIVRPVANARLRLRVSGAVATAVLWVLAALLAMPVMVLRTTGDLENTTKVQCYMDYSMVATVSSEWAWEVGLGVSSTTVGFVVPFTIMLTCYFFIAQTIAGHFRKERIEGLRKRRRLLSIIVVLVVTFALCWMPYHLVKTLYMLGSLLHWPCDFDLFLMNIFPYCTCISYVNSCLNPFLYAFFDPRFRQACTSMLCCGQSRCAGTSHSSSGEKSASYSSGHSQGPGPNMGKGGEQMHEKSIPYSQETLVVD

Structure (SMILES)	EC50 [nM]
CCCCc1nc(O)c(-c2nnc(CC(=O)Nc3cc(C)n[nH]3)o2)c(O)c1-c1c(OC)cccc1OC [Example 263, 2-{5-[6-butyl-5-(2,6-dimethoxyphenyl)-2,4-dihydroxy-pyridin-3-yl]-1,3,4-oxadiazol-2-yl}-N-(3-methyl-1H-pyrazol-5-yl)acetamide]	0.01 to 10
CCCCc1nc(O)c(-c2nnc(CC(=O)NCc3nnc(C)o3)o2)c(O)c1-c1c(OC)cccc1OC [Example 271, 2-{5-[6-butyl-5-(2,6-dimethoxyphenyl)-2,4-dihydroxypyridin-3-yl]-1,3,4-oxadiazol-2-yl}-N-[(5-methyl-1,3,4-oxadiazol-2-yl)methyl]acetamide]	0.01 to 10
CCCCc1nc(O)c(-c2nnc(CC(=O)NCc3cc(C(C)C)no3)o2)c(O)c1-c1c(OC)cccc1OC [Example 272, 2-{5-[6-butyl-5-(2,6-dimethoxyphenyl)-2,4-dihydroxy-pyridin-3-yl]-1,3,4-oxadiazol-2-yl}-N-{[3-(propan-2-yl)-1,2-oxazol-5-yl]methyl} acetamide]	0.01 to 10
CCCCc1nc(O)c(-c2nnc(CC(=O)NCc3ccc(S(N)(=O)=O)cc3)o2)c(O)c1-c1c(OC)cccc1OC [Example 273, 2-{5-[6-butyl-5-(2,6-dimethoxyphenyl)-2,4-dihydroxy-pyridin-3-yl]-1,3,4-oxadiazol-2-yl}-N-[(4-sulfamoylphenyl)methyl]acetamide]	10 to 100
CCOCc1nc(O)c(-c2nnc(Cc3ccc(Cl)cn3)o2)c(O)c1-c1c(O)cccc1OC [Example 274, 3-{5-[(5-chloropyridin-2-yl)methyl]-1,3,4-oxadiazol-2-yl}-6-(ethoxymethyl)-5-(2-hydroxy-6-methoxyphenyl) pyridine-2,4-diol]	0.01 to 10
CCOCc1nc(O)c(-c2nnc(Cc3ccc(Cl)cn3)o2)c(O)c1-c1c(O)cccc1OC [Example 275, 3-{5-[(5-chloropyridin-2-yl)methyl]-1,3,4-oxadiazol-2-yl}-6-(ethoxymethyl)-5-(2-hydroxy-6-methoxyphenyl) pyridine-2,4-diol]	10 to 100
CCOCc1nc(O)c(-c2nnc(Cc3ccc(Cl)cn3)o2)c(O)c1-c1c(O)cccc1O [Example 276, 3-{5-[(5-chloropyridin-2-yl)methyl]-1,3,4-oxadiazol-2-yl}-5-(2,6-dihydroxyphenyl)-6-(ethoxymethyl) pyridine-2,4-diol]	10 to 100

Next, values leading:

EC50 [nM]	Structure (SMILES)
0.01 to 10	CCCCc1nc(O)c(-c2nnc(CC(=O)N(C)Cc3ccccc3)o2)c(O)c1-c1c(OC)cccc1OC [Example 260, N-benzyl-2-{5-[6-butyl-5-(2,6-dimethoxyphenyl)-2,4-dihydroxy-pyridin-3-yl]-1,3,4-oxadiazol-2-yl}-N-methylacetamide]
0.01 to 10	CCCCc1nc(O)c(-c2nnc(CC(=O)N(C)CCc3ccccc3)o2)c(O)c1-c1c(OC)cccc1OC [Example 261, 2-{5-[6-butyl-5-(2,6-dimethoxyphenyl)-2,4-dihydroxy-pyridin-3-yl]-1,3,4-oxadiazol-2-yl}-N-methyl-N-(2-phenylethyl) acetamide]
0.01 to 10	C#CCNC(=O)Cc1nnc(-c2c(O)nc(CCCC)c(-c3c(OC)cccc3OC)c2O)o1 [Example 262, 2-{5-[6-butyl-5-(2,6-dimethoxyphenyl)-2,4-dihydroxy-pyridin-3-yl]-1,3,4-oxadiazol-2-yl}-N-(prop-2-yn-1-yl)acetamide]
0.01 to 10	CCCCc1nc(O)c(-c2nnc(CC(=O)NCc3ccccc3C)o2)c(O)c1-c1c(OC)cccc1OC [Example 264, 2-{5-[6-butyl-5-(2,6-dimethoxyphenyl)-2,4-dihydroxy-pyridin-3-yl]-1,3,4-oxadiazol-2-yl}-N-[(2-methylphenyl)methyl]acetamide]
0.01 to 10	CCCCc1nc(O)c(-c2nnc(CC(=O)NCc3ccccc3Cl)o2)c(O)c1-c1c(OC)cccc1OC [Example 265, 2-{5-[6-butyl-5-(2,6-dimethoxyphenyl)-2,4-dihydroxy-pyridin-3-yl]-1,3,4-oxadiazol-2-yl}-N-[(2-chlorophenyl)methyl]acetamide]
0.01 to 10	CCCCc1nc(O)c(-c2nnc(CC(=O)NCc3ccc(Cl)cc3)o2)c(O)c1-c1c(OC)cccc1OC [Example 266, 2-{5-[6-butyl-5-(2,6-dimethoxyphenyl)-2,4-dihydroxy-pyridin-3-yl]-1,3,4-oxadiazol-2-yl}-N-[(4-chlorophenyl)methyl]acetamide]
0.01 to 10	CCCCc1nc(O)c(-c2nnc(CC(=O)NCCc3ccc(Cl)cc3)o2)c(O)c1-c1c(OC)cccc1OC [Example 267, 2-{5-[6-butyl-5-(2,6-dimethoxyphenyl)-2,4-dihydroxy-pyridin-3-yl]-1,3,4-oxadiazol-2-yl}-N-[2-(4-chlorophenyl)ethyl]acetamide]
0.01 to 10	CCCCc1nc(O)c(-c2nnc(CC(=O)NCc3ccncc3)o2)c(O)c1-c1c(OC)cccc1OC [Example 268, 2-{5-[6-butyl-5-(2,6-dimethoxyphenyl)-2,4-dihydroxy-pyridin-3-yl]-1,3,4-oxadiazol-2-yl}-N-[(pyridin-4-yl)methyl] acetamide]
0.01 to 10	CCCCc1nc(O)c(-c2nnc(CC(=O)NCc3ccc(OC)cc3)o2)c(O)c1-c1c(OC)cccc1OC [Example 269, 2-{5-[6-butyl-5-(2,6-dimethoxyphenyl)-2,4-dihydroxy-pyridin-3-yl]-1,3,4-oxadiazol-2-yl}-N-[(4-methoxyphenyl)methyl]acetamide]
0.01 to 10	CCCCc1nc(O)c(-c2nnc(CC(=O)NCc3ccc(N(C)C)cc3)o2)c(O)c1-c1c(OC)cccc1OC [Example 270, 2-{5-[6-butyl-5-(2,6-dimethoxyphenyl)-2,4-dihydroxy-pyridin-3-yl]-1,3,4-oxadiazol-2-yl}-N-{[4-(dimethylamino)phenyl]methyl} acetamide]
